Experimental data as given in ChEMBL document CHEMBL3044877, “Synthesis and crystal structure of chalcones as well as on cytotoxicity and antibacterial properties” (Med Chem Res, 2012).
Converted amounts (≈) assume the structure as drawn.

Key:
[1] = tested on: HT-29; experiment: Cytotoxicity against Homo sapiens (human) HT-29 cells after 72 hr by MTT assay; format: functional, cell-based
[2] = tested on: SGC-7901; experiment: Cytotoxicity against Homo sapiens (human) SGC7901 cells after 72 hr by MTT assay; format: functional, cell-based
[3] = tested on: Staphylococcus aureus; experiment: Antibacterial activity against multidrug-resistant Staphylococcus aureus 701230; format: functional
[4] = tested on: Staphylococcus epidermidis; experiment: Antibacterial activity against multidrug-resistant Staphylococcus epidermidis 619083; format: functional
[5] = tested on: Staphylococcus aureus; experiment: Antibacterial activity against multidrug-resistant Staphylococcus aureus ATCC 25923; format: functional
[6] = tested on: Enterococcus faecium; experiment: Antibacterial activity against multidrug-resistant Enterococcus faecium 609205; format: functional
[7] = tested on: Enterococcus faecalis; experiment: Antibacterial activity against multidrug-resistant Enterococcus faecalis 609230; format: functional
[8] = tested on: Staphylococcus epidermidis; experiment: Antibacterial activity against multidrug-resistant Staphylococcus epidermidis 620206; format: functional
[9] = tested on: Staphylococcus aureus; experiment: Antibacterial activity against multidrug-resistant Staphylococcus aureus 701219; format: functional
[10] = tested on: Escherichia coli; experiment: Antibacterial activity against multidrug-resistant Escherichia coli 629247; format: functional
[11] = tested on: Acinetobacter baumannii; experiment: Antibacterial activity against multidrug-resistant Acinetobacter baumannii B-5 302234; format: functional
[12] = tested on: Klebsiella pneumoniae; experiment: Antibacterial activity against multidrug-resistant Klebsiella pneumoniae 626238; format: functional
[13] = tested on: Klebsiella pneumoniae; experiment: Antibacterial activity against multidrug-resistant Klebsiella pneumoniae 626511; format: functional
[14] = tested on: Pseudomonas aeruginosa; experiment: Antibacterial activity against multidrug-resistant Pseudomonas aeruginosa 630266; format: functional
[15] = tested on: Pseudomonas aeruginosa; experiment: Antibacterial activity against multidrug-resistant Pseudomonas aeruginosa 710218; format: functional
[16] = tested on: Escherichia coli; experiment: Antibacterial activity against multidrug-resistant Escherichia coli 629119; format: functional
[17] = tested on: Acinetobacter baumannii; experiment: Antibacterial activity against multidrug-resistant Acinetobacter baumannii B-8 303211; format: functional
[18] = tested on: Staphylococcus aureus; experiment: Antibacterial activity against Staphylococcus aureus after 24 hr; format: functional
[19] = Homo sapiens, HT-29, 72 h, read-out: IC50
[20] = Homo sapiens, SGC-7901, 72 h, read-out: IC50

Work on COc1ccc(C(=O)/C=C/c2ccccc2C(F)(F)F)cc1 yielded an IC50 [1, 19] of 36.4 µM.
COc1ccc(C(=O)/C=C/c2ccc(Cl)cc2Cl)cc1 was tested, and the IC50 [1, 19] was 18.9 µM and the IC50 [2, 20] was 12.6 µM.
With COc1ccc(C(=O)/C=C/c2ccc(F)cc2F)cc1 the IC50 [1, 19] was 11.1 µM and the IC50 [2, 20] was 48.4 µM.
For COc1ccc(/C=C/C(=O)c2ccccc2O)c(OC)c1, the IC50 ([1]; ht-29) was “Not Active” and the IC50 ([2]; sgc-7901) was “Not Active”.
For COc1ccc(/C=C/C(=O)c2ccccc2)c(OC)c1, the IC50 [1, 19] was 131 µM.
For O=C(/C=C/c1ccccc1C(F)(F)F)c1ccccc1, the IC50 [1, 19] was 42.9 µM and the IC50 [2, 20] was 40.3 µM.
With COc1ccc(C(=O)/C=C/c2ccccc2Cl)cc1OC the IC50 [1, 19] was 15.5 µM and the IC50 [2, 20] was 24.7 µM.
COc1ccc(C(=O)/C=C/c2cccc(OC)c2OC)cc1 gave an IC50 [1, 19] of 41.7 µM and an IC50 [2, 20] of 13.1 µM.
In the case of COc1ccc(C(=O)/C=C/c2ccccc2Br)cc1OC, the IC50 [1, 19] is reported as 14 µM and the IC50 [2, 20] is reported as 21.4 µM.
With COc1ccc(/C=C/C(=O)c2cc(F)cc(F)c2)c(OC)c1 the IC50 ([1]; ht-29) was “Not Active” and the IC50 [2, 20] was 55.5 µM.
In the case of COc1ccc(C(=O)/C=C/c2ccccc2OC)cc1, the IC50 ([2]; sgc-7901) is reported as “Not Active”.
In the case of COc1ccccc1/C=C/C(=O)c1cc(F)cc(F)c1, the IC50 [1, 19] is reported as 53.2 µM and the IC50 [2, 20] is reported as 75.4 µM.
Nc1ccc(C(=O)/C=C/c2ccccc2C(F)(F)F)cc1 showed an IC50 [2, 20] of 15.7 µM.
With COc1ccc(C(=O)/C=C/c2ccccc2Br)cc1 the IC50 [1, 19] was 25.7 µM and the IC50 [2, 20] was 20 µM.
COc1ccc(C(=O)/C=C/c2ccc(Cl)cc2Cl)cc1OC gave an IC50 [1, 19] of 18.7 µM and an IC50 [2, 20] of 60.5 µM.
In the case of COc1ccc(C(=O)/C=C/c2cccc(OC)c2OC)cc1OC, the IC50 [1, 19] is reported as 35.9 µM and the IC50 [2, 20] is reported as 70.7 µM.
For Nc1ccc(C(=O)/C=C/c2ccc(Cl)cc2Cl)cc1, the IC50 [1, 19] was 40 µM and the IC50 [2, 20] was 87.7 µM.
In the case of O=C(/C=C/c1ccc(Cl)cc1Cl)c1ccccc1O, the IC50 [1, 19] is reported as 42.4 µM.
In the case of CN(C)c1ccc(/C=C/C(=O)c2cccc(N)c2)cc1, the IC50 ([1]; ht-29) is reported as “Not Active”.
CN(C)c1ccc(/C=C/C(=O)c2cc(F)cc(F)c2)cc1 was tested, and the IC50 ([1]; ht-29) was “Not Active” and the IC50 ([2]; sgc-7901) was “Not Active”.
Nc1ccc(C(=O)/C=C/c2ccccc2Cl)cc1 showed an IC50 [1, 19] of 26.2 µM and an IC50 [2, 20] of 11.2 µM.
In the case of COc1ccc(/C=C/C(=O)c2ccc(N)cc2)c(Cl)c1, the MIC [3] is reported as 537 µg/mL (≈ 1870 µM), the MIC [4] is reported as > 1000 µg/mL and the MIC [5] is reported as 537 µg/mL (≈ 1870 µM). For the same compound, the IC50 [1, 19] was 55.7 µM, the MIC [6] was > 1000 µg/mL and the IC50 [2, 20] was 20.2 µM. For the same compound, the MIC [7] was 537 µg/mL (≈ 1870 µM), the MIC [8] was > 1000 µg/mL and the MIC [9] was > 1000 µg/mL.
Compound COc1ccc(/C=C/C(=O)c2cccc(N)c2)c(Cl)c1 has an IC50 [1, 19] of 42.8 µM and an IC50 [2, 20] of 53.8 µM.
COc1ccc(C(=O)/C=C/c2ccc(OC)cc2Cl)cc1 gave an IC50 [1, 19] of 49.1 µM and an IC50 [2, 20] of 19.2 µM.
Compound COc1ccc(/C=C/C(=O)c2ccccc2O)c(Cl)c1 has an IC50 [1, 19] of 59.5 µM and an IC50 [2, 20] of 62.1 µM.
COc1ccc(/C=C/C(=O)c2cc(F)cc(F)c2)cc1 was tested, and the IC50 [1, 19] was 101 µM and the IC50 ([2]; sgc-7901) was “Not Active”.
In the case of Nc1ccc(C(=O)/C=C/c2ccccc2F)cc1, the IC50 [1, 19] is reported as 47.8 µM and the IC50 [2, 20] is reported as 7.44 µM.
In the case of COc1ccc(C(=O)/C=C/c2ccc(N(C)C)cc2)cc1OC, the IC50 [1, 19] is reported as 49.8 µM and the IC50 ([2]; sgc-7901) is reported as “Not Active”.
In the case of COc1ccc(C(=O)/C=C/c2ccc(O)cc2)cc1, the MIC [3] is reported as 81 µg/mL (≈ 319 µM), the MIC [4] is reported as 20 µg/mL (≈ 78.7 µM) and the MIC [10] is reported as 548 µg/mL (≈ 2160 µM). For the same compound, the MIC [5] was 40 µg/mL (≈ 157 µM), the MIC [11] was 548 µg/mL (≈ 2160 µM) and the MIC [12] was > 1000 µg/mL. The MIC [13] was > 1000 µg/mL, the IC50 [1, 19] was 18.6 µM and the MIC [14] was > 1000 µg/mL. The MIC [6] was > 1000 µg/mL, the IC50 [2, 20] was 14.7 µM and the MIC [7] was 81 µg/mL (≈ 319 µM). For the same compound, the MIC [8] was 81 µg/mL (≈ 319 µM), the MIC [9] was 81 µg/mL (≈ 319 µM) and the MIC [15] was > 1000 µg/mL. The MIC [16] was 548 µg/mL (≈ 2160 µM) and the MIC [17] was 548 µg/mL (≈ 2160 µM).
Compound COc1ccc(/C=C/C(=O)c2ccc(OC)c(OC)c2)cc1 has an IC50 [1, 19] of 54.6 µM and an IC50 [2, 20] of 102 µM.
For COc1ccc(/C=C/C(=O)c2ccc(N)cc2)c(OC)c1, the IC50 ([1]; ht-29) was “Not Active” and the IC50 ([2]; sgc-7901) was “Not Active”.
For COc1ccc(/C=C/C(=O)c2ccc(OC)c(OC)c2)c(OC)c1, the IC50 [1, 19] was 65.5 µM and the IC50 ([2]; sgc-7901) was “Not Active”.
In the case of COc1ccc(C(=O)/C=C/c2ccccc2F)cc1, the IC50 [1, 19] is reported as 18.9 µM and the IC50 [2, 20] is reported as 21.2 µM.
O=C(/C=C/c1ccc(O)cc1)c1ccccc1 [4-HYDROXYCHALCONE] gave an MIC [3] of 158 µg/mL (≈ 705 µM), an MIC [4] of 158 µg/mL (≈ 705 µM) and an MIC [10] of 158 µg/mL (≈ 705 µM). For the same compound, the MIC [5] was 158 µg/mL (≈ 705 µM), the MIC [11] was 158 µg/mL (≈ 705 µM) and the MIC [12] was > 1000 µg/mL. For the same compound, the MIC [13] was > 1000 µg/mL, the IC50 [1, 19] was 24.6 µM and the MIC [14] was > 1000 µg/mL. The MIC [6] was 315 µg/mL (≈ 1400 µM), the IC50 [2, 20] was 13.7 µM and the MIC [7] was 158 µg/mL (≈ 705 µM). For the same compound, the MIC [8] was 158 µg/mL (≈ 705 µM), the MIC [9] was 158 µg/mL (≈ 705 µM) and the MIC [15] was 158 µg/mL (≈ 705 µM). The MIC [16] was 158 µg/mL (≈ 705 µM), the MIC [18] was 125 µg/mL (≈ 557 µM) and the MIC [17] was 158 µg/mL (≈ 705 µM).
O=c1[nH]cc(F)c(=O)[nH]1 [FLUOROURACIL] was tested, and the IC50 [1, 19] was 9.72 µM and the IC50 ([2]; Homo sapiens, SGC-7901, 72 h) was 29.2 µM.
Compound C[C@H]1COc2c(N3CCN(C)CC3)c(F)cc3c(=O)c(C(=O)O)cn1c23.C[C@H]1COc2c(N3CCN(C)CC3)c(F)cc3c(=O)c(C(=O)O)cn1c23.O [LEVOFLOXACIN] has an MIC [3] of 12.5 µg/mL, an MIC [4] of 125 µg/mL and an MIC [10] of 25 µg/mL. The MIC [5] was 12.5 µg/mL, the MIC [11] was > 1000 µg/mL and the MIC [12] was > 1000 µg/mL. For the same compound, the MIC [13] was 125 µg/mL, the MIC [14] was 325 µg/mL and the MIC [6] was > 1000 µg/mL. The MIC [7] was > 1000 µg/mL, the MIC [8] was > 1000 µg/mL and the MIC [9] was 100 µg/mL. For the same compound, the MIC [15] was > 1000 µg/mL, the MIC [16] was > 1000 µg/mL and the MIC [17] was 12.5 µg/mL.
